Results on 11 molecules are retold here after ChEMBL document CHEMBL2157948, “Design, synthesis, and structure-activity-relationship of phenyl imidazoles as potent Smoothened antagonists” (Bioorg Med Chem Lett, 2012).

Structures are written as SMILES. In brackets after ≈: the same amount, converted by molar mass.

Data set [1] is described as follows: Plasma protein binding in rat. It is filed as ADME, cell-free. The conditions noted are these: read-out: PPB (converted).
Data set [2] concerns the target T1, Protein smoothened (Mus musculus, UniProt P56726). Kind of data set: Antagonist activity at Smo in mouse TM3 cells expressing Hh12 assessed as inhibition of 25 nM Ag1.5-induced Gli expression incubated for 30 mins prior to Ag1.5-induction measured after 48 hrs by luciferase reporter gene assay. The class given is functional, cell-based. For orientation: A reporter such as luciferase makes a cellular process visible.

A short description of data set [3]: Volume of distribution at steady state in rat at 3 to 30 mg/kg. The class given is ADME, organism-based. The arrangement: dose 3-30 mg/kg. The conditions noted are these: in vivo, read-out: Vdss.
A short description of data set [4]: Ratio of drug uptake in brain to plasma in mouse. The class given is ADME, organism-based. To be noted: read-out: BPR.
The subject of data set [5] is Mus musculus. Kind of data set: Dose normalised AUC in po dosed mouse. It is filed as ADME, organism-based. To be noted: in vivo.
A short description of data set [6]: Mean residence time in mouse. The class given is ADME, organism-based. To be noted: in vivo.
The nature of data set [7]: Clearance in mouse. The class given is ADME, organism-based. To be noted: in vivo.
Data set [8] relates to Mus musculus. Kind of data set: Clearance in po dosed mouse. It is filed as ADME, organism-based. The conditions noted are these: in vivo.
Data set [9] has as its target Protein smoothened (Homo sapiens, UniProt Q99835). Kind of data set: Antagonist activity at human Smo expressed in CHO cells assessed as inhibition of BODIPY-cyclopamine binding after 4 hrs by fluorescence assay. The class given is cell-based.
Data set [10] deals with T1, Protein smoothened. In words: Antagonist activity at Smo in mouse TM3 cells expressing Hh12 assessed as inhibition of 1 nM Ag1.5-induced Gli expression incubated for 30 mins prior to Ag1.5-induction measured after 48 hrs by luciferase reporter gene assay. It is filed as functional, cell-based.
Data set [11] can be described thus: Permeability of the compound by PAMPA assay. The class given is ADME. For orientation: The PAMPA barrier holds no transporters, so it reflects passive diffusion.
Data set [12] concerns the target T1, Protein smoothened. In words: Antagonist activity at mouse Smo expressed in CHO cells assessed as inhibition of BODIPY-cyclopamine binding after 4 hrs by fluorescence assay. It is filed as cell-based.
A short description of data set [13]: Aqueous solubility of the compound at pH 7. It is filed as physicochemical.
The nature of data set [14]: Oral bioavailability in mouse. It is filed as ADME, organism-based. To be noted: in vivo.
Data set [15] in a line: Aqueous solubility of the compound at pH 1. It is filed as physicochemical.
The nature of data set [16]: Mean residence time in rat at 3 to 30 mg/kg. The class given is ADME, organism-based. The arrangement: dose 3-30 mg/kg. To be noted: in vivo.
A short description of data set [17]: Clearance in rat at 3 to 30 mg/kg. The arrangement: dose 3-30 mg/kg. The conditions noted are these: in vivo. It is filed as ADME, organism-based.
Data set [18] is described as follows: Plasma protein binding in human. The class given is ADME, cell-free. The conditions noted are these: read-out: PPB (converted).
Data set [19] can be described thus: Volume of distribution at steady state in mouse. It is filed as ADME, organism-based. To be noted: in vivo, read-out: Vdss.
Data set [20] can be described thus: Oral bioavailability in rat at 3 to 30 mg/kg. It is filed as ADME, organism-based. To be noted: in vivo.

One may read the IC50 as the concentration that inhibits the measured activity by half. What is called MRT is a mean duration of stay, worked out from the concentration-time curve. In general, solubility refers to the dissolved amount per volume that the medium holds. A high value points to much dissolved substance. What is called bioavailability is the share of a dose that reaches the circulation, judged against a reference dose that is usually intravenous.

T1 sequence (P56726 whole entry): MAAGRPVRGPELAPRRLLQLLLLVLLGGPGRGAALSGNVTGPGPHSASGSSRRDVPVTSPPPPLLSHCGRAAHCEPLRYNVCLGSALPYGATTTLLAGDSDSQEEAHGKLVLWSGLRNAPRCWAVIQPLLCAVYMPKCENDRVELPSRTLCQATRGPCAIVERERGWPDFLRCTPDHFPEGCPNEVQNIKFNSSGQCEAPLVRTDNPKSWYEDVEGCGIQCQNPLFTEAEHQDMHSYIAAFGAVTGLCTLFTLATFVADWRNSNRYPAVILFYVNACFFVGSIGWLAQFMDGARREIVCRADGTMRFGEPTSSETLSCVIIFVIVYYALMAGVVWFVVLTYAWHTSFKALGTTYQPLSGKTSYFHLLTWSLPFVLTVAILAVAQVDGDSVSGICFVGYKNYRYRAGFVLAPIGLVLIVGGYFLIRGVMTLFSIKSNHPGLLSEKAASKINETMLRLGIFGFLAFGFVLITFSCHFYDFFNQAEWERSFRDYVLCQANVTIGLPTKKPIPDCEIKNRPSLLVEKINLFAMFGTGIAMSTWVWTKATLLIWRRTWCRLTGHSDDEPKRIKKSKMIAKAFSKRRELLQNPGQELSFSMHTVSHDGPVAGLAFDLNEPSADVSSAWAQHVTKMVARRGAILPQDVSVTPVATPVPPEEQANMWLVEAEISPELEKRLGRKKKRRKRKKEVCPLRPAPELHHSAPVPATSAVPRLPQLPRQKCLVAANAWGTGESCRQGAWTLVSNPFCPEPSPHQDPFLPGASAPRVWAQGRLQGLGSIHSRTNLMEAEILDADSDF
Chain of Protein smoothened (Homo sapiens, UniProt Q99835) (Q99835 whole entry): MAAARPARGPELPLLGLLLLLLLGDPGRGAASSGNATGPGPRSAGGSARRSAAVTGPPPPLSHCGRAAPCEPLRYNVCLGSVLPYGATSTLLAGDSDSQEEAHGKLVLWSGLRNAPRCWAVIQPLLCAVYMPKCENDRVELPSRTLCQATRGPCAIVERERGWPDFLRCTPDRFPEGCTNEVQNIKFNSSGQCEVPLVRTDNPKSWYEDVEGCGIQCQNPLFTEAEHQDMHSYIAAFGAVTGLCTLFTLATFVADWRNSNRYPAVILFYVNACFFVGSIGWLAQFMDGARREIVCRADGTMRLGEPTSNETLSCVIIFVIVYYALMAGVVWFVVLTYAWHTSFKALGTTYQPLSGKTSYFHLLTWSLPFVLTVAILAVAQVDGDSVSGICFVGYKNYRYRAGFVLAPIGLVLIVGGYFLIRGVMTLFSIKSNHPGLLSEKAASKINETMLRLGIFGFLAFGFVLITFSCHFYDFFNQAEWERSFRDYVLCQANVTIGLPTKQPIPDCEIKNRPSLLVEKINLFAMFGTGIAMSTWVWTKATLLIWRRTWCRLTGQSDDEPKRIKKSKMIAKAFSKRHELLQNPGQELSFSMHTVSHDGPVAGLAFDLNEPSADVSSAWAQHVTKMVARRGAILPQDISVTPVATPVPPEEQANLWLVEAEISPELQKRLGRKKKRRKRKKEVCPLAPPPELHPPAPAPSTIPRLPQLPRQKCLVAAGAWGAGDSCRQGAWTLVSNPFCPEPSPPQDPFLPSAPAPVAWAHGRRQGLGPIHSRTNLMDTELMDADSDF

Regarding `C[C@@H]1CN(c2ccc3c(Nc4ccc(Cl)c(-c5ncc(-c6ccccc6)[nH]5)c4)nccc3n2)CCO1`, the fraction unbound was 0.015 in data set [1] and 0.039 in data set [18]. Moreover, the 50% inhibitory concentration (IC50) in data set [2] was 11 nM; in [9] it was 4 nM; in [10], 0.6 nM; in [12], 1.6 nM. For the same molecule, the Vd amounted to 1 L/kg in data set [3] and 1.07 L/kg in data set [19]. Also, in data set [4], the Kp was determined as 0.4. The molecule also displayed an AUC/dose in data set [5] of 881 nM·h. The results for the MRT in [6] and in data set [16] were 0.56 h and 3.33 h, respectively. Further, the results for the clearance in [7], in data set [8] and in data set [17] were 32 mL/min/kg, 32 mL/min/kg and 5 mL/min/kg, respectively. In addition, the permeability result in [11] is on record as “permeable”. Moreover, the solubility in data set [13] was under 1 µg/mL; in data set [15], 93 µg/mL (≈ 187 µM). The bioavailability in data set [14] was 82%; in [20], 53%.

Turning to `C[C@@H]1CN(c2ccc3c(Nc4ccc(Cl)c(-c5nc(-c6ccccc6)c[nH]5)c4)nccc3n2)C[C@H](C)O1`, the IC50 in data set [2] worked out at 6 nM; in [10], 0.2 nM. Besides, in [5], the AUC/dose amounted to 268 nM·h. The same molecule had a clearance in data set [8] of 33.1 mL/min/kg.

As for `C[C@@H]1CN(c2cnc3c(Nc4ccc(Cl)c(-c5nc(-c6ccccc6)c[nH]5)c4)cccc3n2)C[C@H](C)O1`, the IC50 in data set [2] was 35 nM; in data set [10], 3 nM.

On to `C[C@@H]1CN(c2ccc3c(Nc4ccc(Cl)c(-c5ncc(-c6ccccc6)[nH]5)c4)cccc3n2)C[C@H](C)O1`, for which the IC50 in data set [2] was 5 nM; in data set [10] it was 0.3 nM. Moreover, the AUC/dose in data set [5] was 492 nM·h.

For the molecule `C[C@@H]1CN(c2ccc3c(Nc4ccc(Cl)c(-c5nc(-c6ccccc6)c[nH]5)c4)ccnc3c2)C[C@H](C)O1`, the IC50 in data set [2] was found to be 8 nM; in data set [10] it was 0.4 nM. Moreover, the AUC/dose in data set [5] worked out at 0 nM·h.

Consider `C[C@@H]1CN(c2ccc3c(Nc4ccc(Cl)c(-c5ncc(-c6ccccc6)[nH]5)c4)nccc3c2)C[C@H](C)O1`, for which the AUC/dose in [5] turned out to be 499 nM·h. The clearance in data set [8] turned out to be 24.7 mL/min/kg.

Consider `O=S1(=O)CCN(c2ccc3c(Nc4ccc(Cl)c(-c5nc(-c6ccccc6)c[nH]5)c4)nccc3c2)CC1`, for which the IC50 in [2] is 31 nM; in [10], 2 nM.

For `C[C@@H]1CN(c2ccc3c(Nc4ccc(Cl)c(-c5ncc(-c6ccccc6)[nH]5)c4)nccc3c2)CCO1`, the IC50 was determined as 1.6 nM in data set [2] and 0.1 nM in data set [10]. Moreover, the AUC/dose in data set [5] came out at 533 nM·h. Also, the clearance in data set [8] was 30.9 mL/min/kg.

Turning to `Clc1ccc(Nc2nccc3ccccc23)cc1-c1ncc(-c2ccccc2)[nH]1`, the figures for the IC50 in [2] and in data set [10] were 157 nM and 19 nM, respectively.

As to `Clc1ccc(Nc2nccc3cc(N4CCOCC4)ccc23)cc1-c1ncc(-c2ccccc2)[nH]1`, the IC50 in [2] came out at 2.6 nM; in [10], 0.1 nM. The molecule also displayed an AUC/dose in [5] of 101 nM·h.

For `Cc1ccc(NC(=O)c2ccc(N3CCOCC3)cc2)cc1-c1nc(-c2ccccc2)c[nH]1`, the IC50 in [10] stood at 0.2 nM.
